Several values for one entry are separate records, joined by “and”; a condition that tells them apart may be missing. Identical values can stand only once.
Legend:
MCF-7 cells = test: Annexin V-FITC/PI apoptosis assay; assay type: cell-based, human; conditions: 0.1 μM, 24 h; for % Cell number, Early apoptosis / % Cell number, Late apoptosis / % Cell number, Live cells / % Cell number, Necrosis: n = 3
Experimental: The ability of compounds 16a,b,d to induce apoptotic changes in MCF-7 cells was determined by Annexin V-FITC/PI staining according to the previous report[13]^,[18]^,[19]. Additionally, the morphological changes in MCF-7 cells were examined by microscope. Following treatment with the test compounds at 0.1 µM for 24 h, the cells were stained with annexin V and PI. The determination of necrotic, early/late apoptotic changes were performed by flow cytometer (FC500, Beckman Coulter, Miami, FL).
The cytotoxic activity of our previously reported pyrrolizine-5-carboxamide 9a was mediated by the induction of apoptosis in MCF-7 cells[13]^,[19]. […] The cancer cells were treated with the test compounds (0.1 μM) for 24 h. The induction of apoptosis in MCF-7 cells by the selected compounds was investigated using annexin V fluorescein isothiocyanate (FITC)/propidium iodide (PI) staining assay. The assay procedures were the same as those applied in the previous report. Compound 16a increased apoptosis (early and late events) in MCF-7 cells to 19% compared to 1% in the control. Moreover, compound 16b caused a significant increase of MCF-7 apoptotic cells which was similar to the effect of compound 16a.

EGFR = EGFR (Homo sapiens, UniProt P00533); test: Kinase profiling test; assay type: biochemical; conditions: stated as inhibition, read-out: inhibition% against EGFR
EGFR, sequence (P00533 25-1210): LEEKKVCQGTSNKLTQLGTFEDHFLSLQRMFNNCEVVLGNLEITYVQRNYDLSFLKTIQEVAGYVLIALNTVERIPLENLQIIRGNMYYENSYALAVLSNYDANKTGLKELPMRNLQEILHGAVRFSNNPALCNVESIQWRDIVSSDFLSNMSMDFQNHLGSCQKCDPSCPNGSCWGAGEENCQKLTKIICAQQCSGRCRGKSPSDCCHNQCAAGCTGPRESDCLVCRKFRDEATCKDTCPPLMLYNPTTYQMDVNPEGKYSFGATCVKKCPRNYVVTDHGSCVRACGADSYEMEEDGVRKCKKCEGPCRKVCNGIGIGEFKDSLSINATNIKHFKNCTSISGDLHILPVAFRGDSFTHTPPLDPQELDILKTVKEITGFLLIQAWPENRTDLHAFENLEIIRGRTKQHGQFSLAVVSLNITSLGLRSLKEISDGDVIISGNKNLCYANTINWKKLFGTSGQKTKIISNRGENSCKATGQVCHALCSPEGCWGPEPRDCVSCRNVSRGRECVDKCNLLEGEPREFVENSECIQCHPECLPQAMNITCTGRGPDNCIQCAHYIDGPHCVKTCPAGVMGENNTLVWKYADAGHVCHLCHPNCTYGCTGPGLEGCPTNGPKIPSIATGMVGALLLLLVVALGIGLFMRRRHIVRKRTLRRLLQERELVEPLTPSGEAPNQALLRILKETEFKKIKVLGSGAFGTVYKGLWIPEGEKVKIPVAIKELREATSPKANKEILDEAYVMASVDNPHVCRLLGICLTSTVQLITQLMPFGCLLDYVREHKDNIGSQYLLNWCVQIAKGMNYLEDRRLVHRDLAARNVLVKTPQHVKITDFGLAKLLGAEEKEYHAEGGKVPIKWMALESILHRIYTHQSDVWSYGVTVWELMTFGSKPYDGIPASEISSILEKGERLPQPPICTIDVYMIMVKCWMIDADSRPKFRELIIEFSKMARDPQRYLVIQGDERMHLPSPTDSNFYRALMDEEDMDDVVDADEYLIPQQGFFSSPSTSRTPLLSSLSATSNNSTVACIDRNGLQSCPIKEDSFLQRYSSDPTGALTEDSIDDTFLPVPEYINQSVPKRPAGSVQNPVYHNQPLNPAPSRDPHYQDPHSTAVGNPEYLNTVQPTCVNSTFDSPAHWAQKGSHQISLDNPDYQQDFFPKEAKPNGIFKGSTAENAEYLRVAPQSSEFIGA
Experimental: The test was performed using the radiolabeled ATP determination method (KINEXUS Bioinformatics Corporation, Vancouver, Canada). The test was performed following the previous reports[13]^,[20].
The three compounds were tested at the same concentration (10 μM) against the same 20 kinases used in the previous report. The test was performed by KINEXUS Bioinformatics Corporation (Vancouver, Canada), following previous reports[13]^,[20].

MCF-7 = test: MTT cell proliferation assay; assay type: cell-based, human; conditions: for IC50: Homo sapiens, MCF7, MTT, 72 h treatment, n = 3, read-out: IC50 (µM ± SD) MCF-7; for Selectivity index MCF-7: IC50 MRC-5 / IC50 MCF-7
Experimental: (§1) MCF-7 (human breast adenocarcinoma), A2780 (human ovarian cancer) and HCT116 (human colorectal carcinoma), and MRC-5 (normal foetal lung fibroblast) cell lines were bought from the ATCC and were cultured in flasks which were incubated at 37 °C in an atmosphere of 5% CO2, 95% air, and 100% relative humidity, to maintain continuous logarithmic growth. MCF-7, A2780, and HCT116 were maintained in RPMI-1640 media (100 U/mL penicillin, 100 µg/mL streptomycin, and 10% foetal bovine serum, Gibco, Carlsbad, CA). MRC-5 cells were maintained in EMEM (100 U/mL penicillin, 100 µg/mL streptomycin, and 10% foetal bovine serum, Gibco, Carlsbad, CA). Doxorubicin (5 μg/mL, for three months) added for RPMI-1640 media containing MCF7 cells was used to develop doxorubicin-resistant MCF7/ADR cells. All cancer and normal cell lines were cultured according to our previous report. Cells were used within 10–20 passages and were checked for mycoplasma every 6 months, by measuring the bioluminescence (Myco Alert sample detection kit; Lonza, Basel, Switzerland) using the multiplate reader (Synergy HT, BioTek, Winooski, VT).
(§2) The MTT assay was used to measure the cytotoxicity and growth inhibitory activities and cytotoxicity of the new compounds according to our previous report[13]^,[17]. Cells from flasks of 70–80% confluency were separately seeded in 96-well flat-bottom microculture plates (Nalgene-Nunc, Thermo Fisher Scientific, Roskilde, Denmark) at a density of 3 × 10^3 cells (MCF-7, A2780, and MRC-5), 1 × 10^4 cells (HCT116), to a volume of 180 μL/well of culture medium. A Neubauer haemocytometer was used for cell counting. Cells were incubated at 37 °C overnight to allow attachment to the wells. The final concentrations of each compound in wells were: 0–50 μM in 200 μL of media (DMSO 0.1%). Lapatinib (Cayman, Ann Arbor, MI) was used as a positive control at the same final concentrations. Medium only (20 μL) was added to each control well, and each concentration was tested in triplicates (n = 3). Following incubation for 72 h, 50 μL MTT was added into each well. Plates were incubated for 3 h, the supernatant was aspirated, and 100 μL of DMSO was added to each well. The optical density (OD) of the purple formazan is proportional to the number of viable cells. […] GraphPad Prism version 5.00 for Windows was used for analysis (La Jolla, CA). Cytotoxicity of the new compounds was calculated after treatment of cancer/normal cell lines for 72 h. The absorbance of the reduced MTT was determined using a microplate reader A570 nm.
(§3) The cytotoxic activity of the new compounds (15a–e, 16a–e, 20, and 21) was evaluated in vitro using MTT assay. The MTT assay depends on the reduction of the yellow tetrazole dye (MTT) to the purple formazan by the active mitochondrial dehydrogenase enzymes indicating the viability of the cells which can be measured as OD. The new compounds were evaluated against three non-resistant cancer cell lines: MCF-7, and A2780 cell lines were selected to compare cytotoxicity of the new compounds with the previously reported results of compounds 9a,b[13]. Cytotoxicity of the new compounds was also evaluated also against HCT116 cells which lacks COX-2 protein[33]^,[34].

A2780 = test: MTT cell proliferation assay; assay type: cell-based, human; conditions: for IC50: Homo sapiens, A2780, MTT, 72 h treatment, n = 3, read-out: IC50 (µM ± SD) A2780; for Selectivity index A2780: IC50 MRC-5 / IC50 A2780
Experimental: as §1, §2, §3

HCT116 = test: MTT cell proliferation assay; assay type: cell-based, human; conditions: for IC50: Homo sapiens, HCT-116, MTT, 72 h treatment, n = 3, read-out: IC50 (µM ± SD) HCT116; for Selectivity index HCT116: IC50 MRC-5 / IC50 HCT116
Experimental: as §1, §2, §3

normal MRC-5 cells = test: MTT assay, normal cells (cytotoxic selectivity); assay type: cell-based; conditions: Homo sapiens, MRC5, 72 h treatment, n = 3, read-out: IC50 (µM ± SD) MRC-5
Experimental: as §1, §2
Selectivity towards cancerous cells is one of the important issues which must be considered during the discovery and development of new anticancer agents. To assess the toxicity and selectivity of the new compounds (15a–e, 16a–e, 20, and 21), their growth inhibitory activities against normal human foetal lung fibroblast MRC-5 cells were evaluated using the MTT assay. […] The selectivity of the new compounds towards each of the three cancer cell lines was calculated by dividing their IC50 values against normal MRC-5 cells by their IC50 values against the corresponding cancer cell line (Table 3).

[1] = test system: microtubule cytoskeleton of MCF-7 cells; test: Immunofluorescence staining of microtubules; assay type: cell-based, human; conditions: 5 μM, 24 h
CDK-2 = biological target: T1, CDK-2 (Homo sapiens, UniProt P24941); test: CDK-2 inhibitory assay (ADP-Glo); assay type: biochemical; conditions: three determinations, read-out: IC50 (μM) ± SEM CDK-2
T1 construct: purchased Promega, Madison, WI
Source text: The assay was done according to the manufacturer’s instructions and as described in the previous report[21].

SMILES | % Cell number, Early apoptosis (MCF-7 cells) [%] | % Cell number, Late apoptosis (MCF-7 cells) [%] | % Cell number, Live cells (MCF-7 cells) [%] | % Cell number, Necrosis (MCF-7 cells) | inhibition at 10 µM (EGFR) [%] | IC50 (MCF-7) [µM] | Selectivity index MCF-7 (MCF-7) | IC50 (A2780) [µM] | Selectivity index A2780 (A2780) | IC50 (HCT116) [µM] | Selectivity index HCT116 (HCT116) | IC50 (normal MRC-5 cells) [µM] | melting point [°C] | effect on cellular microtubules [1] | IC50 (CDK-2) [µM] | apoptosis (early and late events) (MCF-7 cells; control 1%) [%]
COc1cc(C(=O)Nc2c(C#N)c3n(c2C(=O)Nc2ccc(C)cc2)CCC3)cc(OC)c1OC [16b, 7-Cyano-N-(p-tolyl)-6-(3,4,5-trimethoxybenzamido)-2,3-dihydro-1H-pyrrolizine-5-carboxamide] | 6.22 ± 0.22 | 13.01 ± 1.02 | 75.00 ± 2.90 | 7.11% and 7.11 ± 0.80% | 11 | 0.068 ± 0.009 | 86.04 | 0.18 ± 0.043 | 32.51 | 0.092 ± 0.001 | 63.60 | 5.85 ± 1.19 | 265 to 267 | shrank and partially disorganised microtubules which split partially into fragments | 0.265 ± 0.021 | 
COc1cc(C(=O)Nc2c(C#N)c3n(c2C(=O)Nc2ccccc2)CCC3)cc(OC)c1OC [16a, 7-Cyano-N-phenyl-6-(3,4,5-trimethoxybenzamido)-2,3-dihydro-1H-pyrrolizine-5-carboxamide] | 8.40 ± 0.87 | 10.70 ± 1.06 | 77.40 ± 1.39 | 3.50% and 3.50 ± 0.37% | 30 | 0.082 ± 0.002 | 1.89 | 0.044 ± 0.01 | 3.52 | 0.135 ± 0.007 | 1.15 | 0.155 ± 0.062 | 253 to 255 |  | 0.086 ± 0.016 | 19
COc1cc(C(=O)Nc2c(C#N)c3n(c2C(=O)Nc2ccc(Cl)cc2)CCC3)cc(OC)c1OC [16d, N-(4-Chlorophenyl)-7-cyano-6-(3,4,5-trimethoxybenzamido) -2,3-dihydro-1H-pyrrolizine-5-carboxamide] | 7.50 ± 0.95 | 19.94 ± 1.30 | 71.99 ± 2.88 | 2.51% and 2.51 ± 0.45% |  | 0.071 ± 0.001 | 114.08 | 0.03 ± 0.005 | 270.00 | 0.097 ± 0.001 | 83.51 | 8.1 ± 0.897 | 281 to 283 |  | 0.113 ± 0.017 | 

— article PMC8221158, “Novel pyrrolizines bearing 3,4,5-trimethoxyphenyl moiety: design, synthesis, molecular docking, and biological evaluation as potential multi-target cytotoxic agents” (Journal of Enzyme Inhibition and Medicinal Chemistry, 2021)
